Laboratory results taken from PMC3456924, “Single-dose pharmacokinetic and toxicity analysis of pyrrole–imidazole polyamides in mice” (Cancer Chemotherapy and Pharmacology, 2012).
Values joined by “and” are separate entries in the source; they are usually repeats but may differ in a detail not shown here. Equal entries are not always repeated. “Also recorded” adds a separate entry of the source. Where two headings read alike, the source gives them in different places.

How the values were obtained:
[1] = Urinary and fecal excretion after a single IV injection; type: in vivo, BALB/C mice
Protocol: (§1) Pyrrole–imidazole polyamide pharmacokinetic studies were performed in 10- to 12-week-old female BALB/C mice (Charles River). Polyamides were solubilized in PBS (1) or PBS/DMSO (2) and administered via intravenous (IV) tail vein injection at concentrations of 7.5 and 5 mg/kg, respectively. For each experiment, groups of 3 animals were euthanized at 0.083, 0.25, 0.5, 1, 2, 4, 8, and 24 h after injection. Animals designated for the 4, 8, and 24 h time points were housed in metabolic cages for collection of urine and feces as described below. All animals used in the pharmacokinetic experiments were performed under an approved protocol at the City of Hope.
Urine and fecal samples were collected using metabolic cages (Ancare, Techniplast Metabolic Rack, 12 cages by Nalgene). Urine samples were collected at 3 time points over 24 h, and fecal samples were collected at 8 and 24 h time points. […]
Plasma pharmacokinetic parameters were derived from polyamide concentration profiles using both non-compartmental and compartmental methods. […] Additional plasma pharmacokinetic parameters determined from the compartmental analysis include the alpha and beta half-lives (t 1/2) and the apparent volume of distribution (V d). […] Urinary and fecal excretion data were expressed as the cumulative percentage of the administered dose.

[2] = Tissue distribution (liver, kidney, lung) after a single IV injection; type: in vivo, BALB/C mice; conditions: for Tmax / concentration at 24 h: female, BALB/C, mouse; for concentration at 24 h: experiment endpoint (24 h), read-out: concentration remaining in the liver at the experiment endpoint; for AUC (AUC0–24h) kidney / C max kidney / AUC (AUC0–24h) liver / C max liver / AUC (AUC0–24h) lung / C max lung: 7.5 mg/kg (1), 5 mg/kg (2); for concentration in the lung maintained over the entire time course: lowest level over 24 h
Protocol: as §1
Distribution of polyamides 1 and 2 was determined in the liver, kidneys, and lungs. The organs were harvested post-euthanasia and prepared via similar processes. A piece of the mouse organ was weighed and mixed with distilled water (3 μL/mg tissue). The tissue was then homogenized by pulsing three times on a TissueLyser for 2 min each at 30 Hz. Next, 30 μL of the tissue homogenate was mixed with 20 μL of 50 % MeOH and 50 % aqueous 1 % HOAc. The mixture was then vortex mixed with 0.12 mL 0.5 % HOAc in MeOH/ACN (2:8) and 20 μL of 6.0 μg/mL INS in MeOH/1 % aqueous HOAc (1:1) for 10 min and centrifuged at the highest setting for an additional 10 min. Samples treated with polyamide 1 were then diluted with 50 % MeOH/ACN (4:6) and 50 % aqueous 1 % HOAc. Samples treated with polyamide 2 were diluted with 50 % MeOH/ACN (4:6) and 50 % aqueous 3 % FA.
Plasma pharmacokinetic parameters were derived from polyamide concentration profiles using both non-compartmental and compartmental methods. Non-compartmental analysis was performed according to statistical moment theory and the rule of linear trapezoids, while compartmental analysis was performed in ADAPT II [24]. Pharmacokinetic parameters estimated from the non-compartmental analysis include the maximum concentration (C max), the terminal elimination half-life (t 1/2), the mean residence time (MRT), the area under the concentration curve (AUC0–24h), the AUC extrapolated to infinity (AUC0–∞), and the clearance (CL). Additional plasma pharmacokinetic parameters determined from the compartmental analysis include the alpha and beta half-lives (t 1/2) and the apparent volume of distribution (V d). Tissue pharmacokinetic parameters were determined non-compartmentally and included the C max and AUC0–24h. Urinary and fecal excretion data were expressed as the cumulative percentage of the administered dose.

pH stability analysis = type: physicochemical; conditions: buffers at 37 °C for 24 h; analytical HPLC
Protocol: The pH stability of Py-Im polyamides was analyzed as previously described. In summary, 15 μL of a 10 μM solution of polyamide 1 or 2 in DMSO was incubated with 85 μL of buffer with pH of 2.5, 4, 7, or 10 (Fluka) at 37 °C for 24 h. After incubation, the sample was mixed with an equal volume of N,N-dimethylformamide and sonicated briefly. Next, 20 μL of the sample solution was mixed with 180 μL of aqueous buffer containing 100 mM NH4OAc and 25 μM methyl 4-nitro-1H-pyrrole-2-carboxylate as an internal standard. Analytical HPLC analysis was performed on a Beckman analytical HPLC.

C57BL/6 mice = experiment: Toxicity (weight loss, signs of duress) after a single SC injection; conditions: for additional signs of duress / dose level with critical (>15 %) / dose-limiting weight loss: single SC injection, 7-day observation
Description: Four animals were used in each group unless otherwise noted.

Structure (SMILES)	concentration at 24 h ([2]; liver, single IV) [ng/g]	AUC (AUC0–24h) kidney ([2]; kidney, single IV) [µg·h/g]	C max kidney ([2]; kidney, single IV) [µg/g]	AUC (AUC0–24h) liver ([2]; liver, single IV) [µg·h/g]	C max liver ([2]; liver, single IV) [µg/g]	concentration in the lung maintained over the entire time course ([2]; lung, single IV)	AUC (AUC0–24h) lung ([2]; lung, single IV) [µg·h/g]	C max lung ([2]; lung, single IV) [µg/g]	stability at pH 2.5, 4, 7, and 10 (pH stability analysis)	additional signs of duress (C57BL/6 mice)	dose level with critical (>15 %) / dose-limiting weight loss (C57BL/6 mice)	other results
CN(CCCNC(=O)c1cccc(C(=O)O)c1)CCCNC(=O)c1cc(NC(=O)c2cc(NC(=O)c3cc(NC(=O)c4nc(NC(=O)[C@H](N)CCNC(=O)c5cc(NC(=O)c6cc(NC(=O)c7cc(NC(=O)c8nccn8C)cn7C)cn6C)cn5C)cn4C)cn3C)cn2C)cn1C [Polyamide 1]	4800 ± 300	299.2	27.0 ± 2.9	157.7	11.7 ± 1.3	above 2.8 ± 0.2 μg/g	130.6	16.4 ± 1.4	did not display significant signs of degradation at any pH	no additional sign of duress was observed	10 mg/kg	cumulative urinary excretion ([1]; nearly complete by 4 h, single IV 7.5 mg/kg): 5.7 ± 2.9 % of the administered dose; Tmax ([2]; kidney, single IV, read-out: time of maximum concentration in kidney postinjection (converted)): 5 min; Tmax ([2]; liver, single IV, read-out: time of maximum concentration in liver postinjection (converted)): 5 min; Tmax ([2]; lung, single IV, read-out: time of peak concentration in lung following injection (converted)): 15 min
CC(=O)N[C@@H](CNC(=O)c1cc(NC(=O)c2cc(NC(=O)c3cc(NC(=O)c4nccn4C)cn3C)cn2C)cn1C)CC(=O)Nc1cn(C)c(C(=O)Nc2cc(C(=O)Nc3cc(C(=O)Nc4cc(C(=O)NCCCN(C)CCCNC(=O)c5cccc(C(=O)O)c5)n(C)c4)n(C)c3)n(C)c2)n1 [Polyamide 2]	17400 ± 8100	424.7	35.1 ± 2.8	301.3	43.8 ± 0.7	> 21.8 ± 7.6 µg/g	523.5	256 ± 93.1	did not display significant signs of degradation at any pH	multiple signs of duress such as loss of ambulation and hunched posture in addition to weight loss; also recorded: additional signs of physical duress in addition to weight loss at all concentrations except 1.1 mg/kg	4.5 mg/kg and 2.3 mg/kg	cumulative urinary excretion at 24 h ([1]; 24 h, single IV 5 mg/kg): 46.0 ± 15.2 % of the administered dose; time of maximum concentration in kidney postinjection ([2]; kidney, single IV): 5 min; time of maximum concentration in liver postinjection ([2]; liver, single IV): 5 min; lung C max of polyamide 2 relative to compound 1 ([2]; lung, initial distribution): greater than 15 fold; time of peak concentration in lung following injection ([2]; lung, single IV): 15 min; relative toxicity in weight curve experiments (C57BL/6 mice; single SC injection of 1 and 2): more toxic
